Experimental data: ChEMBL document CHEMBL1201862, “PubChem BioAssay data set” (2004)
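Test compounds were applied to cells in 96-well plates for 48 hours at 5 doses. Here, GI50 denotes the concentration required for 50% inhibition of growth.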 Active and inactive are the calls of the source. Rule as the data show it: active = GI50 up to about 1.1 µM and inactive = higher.

Legend:
Experiment in all cases: inhibition of tumour cell growth, NCI panel, 48 h
RPMI-8226 = test system: RPMI-8226
HT-29 = test system: HT-29
HCC 2998 = test system: HCC 2998
MCF7 = test system: MCF7
HOP-62 = test system: HOP-62
COLO 205 = test system: COLO 205
MOLT-4 = test system: MOLT-4
IGROV-1 = test system: IGROV-1
SK-MEL-28 = test system: SK-MEL-28
OVCAR-5 = test system: OVCAR-5
HL-60 = test system: HL-60
EKVX = test system: EKVX
SF-539 = test system: SF-539
SF-295 = test system: SF-295
U-251 = test system: U-251
UACC-257 = test system: UACC-257
M14 = test system: M14
PC-3 = test system: PC-3
ACHN = test system: ACHN
T47D = test system: T47D

| Compound | GI50 (RPMI-8226) | GI50 (HT-29) | GI50 (HCC 2998) | GI50 (MCF7) | GI50 (HOP-62) | GI50 (COLO 205) | GI50 (MOLT-4) | GI50 (IGROV-1) | GI50 (SK-MEL-28) | GI50 (OVCAR-5) | GI50 (HL-60) | GI50 (EKVX) | GI50 (SF-539) | GI50 (SF-295) | GI50 (U-251) | GI50 (UACC-257) | GI50 (M14) | GI50 (PC-3) | GI50 (ACHN) | GI50 (T47D) |
| --- | --- | --- | --- | --- | --- | --- | --- | --- | --- | --- | --- | --- | --- | --- | --- | --- | --- | --- | --- | --- |
| Cc1c2ccncc2c(C)c2c1[nH]c1ccc(OCCN(C)C)cc12 | 0.0638 µM (active) | 0.171 µM (active) | 0.22 µM (active) | 0.164 µM (active) | 0.671 µM (active) | 0.357 µM (active) | 0.0193 µM (active) | 0.388 µM (active) | 0.577 µM (active) | 0.433 µM (active) | 0.136 µM (active) | 0.526 µM (active) | 0.832 µM (active) | 0.125 µM (active) | 0.209 µM (active) | 0.92 µM (active) | – | – | – | – |
| Nc1ccc(S(=O)(=O)c2ccc(NCN3C(=O)NC(=O)C(=O)C3=O)cc2)cc1 [ALLANTODAPSONE] | – | > 100 µM (inactive) | > 100 µM (inactive) | – | > 100 µM (inactive) | – | > 100 µM (inactive) | > 100 µM (inactive) | > 100 µM (inactive) | > 100 µM (inactive) | – | > 100 µM (inactive) | – | > 100 µM (inactive) | > 100 µM (inactive) | > 100 µM (inactive) | > 100 µM (inactive) | > 100 µM (inactive) | > 100 µM (inactive) | > 100 µM (inactive) |
| COC1(O)c2cccc(Cl)c2C(=O)N1C1(C(N)=O)CCCCC1 (configuration not stated) | > 100 µM (inactive) | > 43.7 µM (inactive) | > 100 µM (inactive) | > 100 µM (inactive) | > 100 µM (inactive) | > 100 µM (inactive) | > 100 µM (inactive) | > 100 µM (inactive) | > 100 µM (inactive) | > 100 µM (inactive) | > 100 µM (inactive) | > 100 µM (inactive) | > 100 µM (inactive) | > 100 µM (inactive) | > 100 µM (inactive) | > 100 µM (inactive) | – | – | – | – |
| COC(=O)/C=C1/N=C(N(C)/N=C/c2ccccc2)NC1=O | – | > 100 µM (inactive) | > 100 µM (inactive) | > 100 µM (inactive) | > 100 µM (inactive) | > 100 µM (inactive) | > 100 µM (inactive) | > 100 µM (inactive) | > 100 µM (inactive) | > 100 µM (inactive) | > 100 µM (inactive) | > 100 µM (inactive) | > 100 µM (inactive) | > 100 µM (inactive) | – | > 100 µM (inactive) | > 100 µM (inactive) | > 100 µM (inactive) | – | > 100 µM (inactive) |
| CCOC(=O)c1c(Cl)nc2ccccc2c1N=[N+]=[N-] | 43.5 µM (inactive) | 19.6 µM (inactive) | 80.4 µM (inactive) | – | 49.3 µM (inactive) | 21.5 µM (inactive) | 24.2 µM (inactive) | 22 µM (inactive) | 52.4 µM (inactive) | 19.3 µM (inactive) | 67 µM (inactive) | 22.4 µM (inactive) | 18.6 µM (inactive) | 23.9 µM (inactive) | 24.5 µM (inactive) | 21.8 µM (inactive) | 19.1 µM (inactive) | 32.2 µM (inactive) | 40.3 µM (inactive) | 22.7 µM (inactive) |
| O=C(C1=C(C(=O)c2ccccc2)SC2(S1)C(C(=O)c1ccccc1)=C(C(=O)c1ccccc1)Sc1c2ssc1=O)c1ccccc1 | – | > 100 µM (inactive) | 55.8 µM (inactive) | > 100 µM (inactive) | > 100 µM (inactive) | > 100 µM (inactive) | 1.11 µM (active) | > 100 µM (inactive) | > 100 µM (inactive) | 26.8 µM (inactive) | 11.2 µM (inactive) | > 100 µM (inactive) | 24.4 µM (inactive) | 33.5 µM (inactive) | 32.6 µM (inactive) | > 100 µM (inactive) | 37.3 µM (inactive) | > 100 µM (inactive) | 37.5 µM (inactive) | 97.7 µM (inactive) |
| CN1C(=O)N(C)C2(CCN(CC(CC3OCCO3)c3ccc(F)cc3)CC2)C1=O (configuration not stated) | > 100 µM (inactive) | > 100 µM (inactive) | – | > 100 µM (inactive) | > 100 µM (inactive) | > 100 µM (inactive) | > 100 µM (inactive) | > 100 µM (inactive) | > 100 µM (inactive) | > 100 µM (inactive) | > 100 µM (inactive) | > 100 µM (inactive) | > 100 µM (inactive) | > 100 µM (inactive) | > 100 µM (inactive) | > 100 µM (inactive) | > 100 µM (inactive) | > 100 µM (inactive) | > 100 µM (inactive) | > 100 µM (inactive) |
| COc1cc(C(=O)CC2OC(=O)C(Cl)=C2Cl)ccc1Cl (configuration not stated) | > 100 µM (inactive) | > 100 µM (inactive) | > 100 µM (inactive) | – | > 100 µM (inactive) | > 100 µM (inactive) | > 100 µM (inactive) | > 100 µM (inactive) | > 100 µM (inactive) | > 100 µM (inactive) | > 100 µM (inactive) | > 100 µM (inactive) | > 100 µM (inactive) | > 100 µM (inactive) | > 100 µM (inactive) | > 100 µM (inactive) | > 100 µM (inactive) | – | > 100 µM (inactive) | – |
| O=C(CCc1ccc(O)cc1)NCCc1cccc(O)c1 | – | > 50 µM (inactive) | – | > 50 µM (inactive) | > 50 µM (inactive) | > 50 µM (inactive) | > 50 µM (inactive) | > 50 µM (inactive) | > 50 µM (inactive) | > 50 µM (inactive) | > 50 µM (inactive) | > 50 µM (inactive) | > 50 µM (inactive) | > 50 µM (inactive) | > 50 µM (inactive) | > 50 µM (inactive) | > 50 µM (inactive) | > 50 µM (inactive) | > 50 µM (inactive) | > 50 µM (inactive) |
| c1ccc(COc2cccc3ccc[n+](Cc4ccccc4)c23)cc1 | 2.77 µM (inactive) | 5.01 µM (inactive) | 13.1 µM (inactive) | – | 12 µM (inactive) | 6.44 µM (inactive) | 5.35 µM (inactive) | 3.03 µM (inactive) | 3.85 µM (inactive) | 1.92 µM (inactive) | 1.93 µM (inactive) | 6.43 µM (inactive) | 7.82 µM (inactive) | 4.26 µM (inactive) | 4.01 µM (inactive) | 2.61 µM (inactive) | 9.38 µM (inactive) | – | 8.2 µM (inactive) | – |
| CCc1ccc2nc(-c3ccc(O)cc3)sc2c1 | 13.9 µM (inactive) | 16.6 µM (inactive) | – | 20.2 µM (inactive) | – | 15.3 µM (inactive) | 13.6 µM (inactive) | 14 µM (inactive) | – | 15.3 µM (inactive) | 2.96 µM (inactive) | – | 11.7 µM (inactive) | 16.8 µM (inactive) | 17.7 µM (inactive) | 12.7 µM (inactive) | 18.7 µM (inactive) | 12.6 µM (inactive) | 17.7 µM (inactive) | – |
| CC(=O)OC1CC[C@]2(C)C3CC[C@@]4(C)C(CCC4[C@H](C)CCCC(C)C)[C@@H]3CCC2(Br)C1 (some centres not stated) | – | 17.5 µM (inactive) | > 50 µM (inactive) | 10.5 µM (inactive) | > 50 µM (inactive) | 9.62 µM (inactive) | 9.98 µM (inactive) | 11.9 µM (inactive) | 7.91 µM (inactive) | 24.2 µM (inactive) | 9.59 µM (inactive) | > 50 µM (inactive) | 9.18 µM (inactive) | 34.8 µM (inactive) | 17.9 µM (inactive) | 31.7 µM (inactive) | 18.5 µM (inactive) | 10.9 µM (inactive) | 9.91 µM (inactive) | 14.1 µM (inactive) |
